Experimental data reported in patent publication US20060069132A1, “Azolecarboxamide herbicides” (priority 2004, published 2006).

What was measured:
ducksalad = assay: Test B flooded paddy test; assay type: in vivo, Heteranthera limosa; details: 1000 g ai/ha, visual rating, scale 0 to 100 (0 no effect, 100 complete control), 13 to 15 days
How it was run: (§1)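 Greenhouse test; postemergence application to plants at 1–4 leaves (2–18 cm); paddy species at 2 leaves; evaluated visually vs controls at 13–15 days; scale 0–100 (100 = complete control).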

corn = assay: Test B pre-/postemergence herbicide test; assay type: in vivo, Zea mays
How it was run: (§2)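 Formulation: non-phytotoxic solvent mix with surfactant. Timing: preemergence on seed and postemergence on 2–18 cm plants, applied concurrently. Readout after 13–15 d greenhouse: visual 0–100 control rating against controls.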

giant foxtail = assay: Test B pre-/postemergence herbicide test; assay type: in vivo, Setaria faberi
How it was run: as §2

cocklebur = assay: Test B pre-/postemergence herbicide test; assay type: in vivo, Xanthium strumarium
How it was run: (§3)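 Greenhouse pot assay with simultaneous preemergence (treated seed) and postemergence (2–18 cm seedlings) applications of surfactant-containing, non-phytotoxic solvent formulations. Response scored visually 13–15 days later on a 0–100 scale, 100 meaning complete control.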

rice = assay: Test B flooded paddy test; assay type: in vivo, Oryza sativa; details: 1000 g ai/ha, visual rating, scale 0 to 100 (0 no effect, 100 complete control), 13 to 15 days
How it was run: (§4)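 Scale 0–100: zero equals no visible effect, 100 complete control, judged by eye relative to controls. Timing: 13 to 15 days in greenhouse post-treatment. Growth stage at spraying: two leaves (paddy) or one to four leaves, 2–18 cm (postemergence).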

lambsquarters = assay: Test B pre-/postemergence herbicide test; assay type: in vivo, Chenopodium album
How it was run: as §2

large crabgrass = assay: Test B pre-/postemergence herbicide test; assay type: in vivo, Digitaria sanguinalis
How it was run: as §2

barnyardgrass [1] = assay: Test B pre-/postemergence herbicide test; assay type: in vivo, Echinochloa crus-galli
How it was run: as §3

morningglory = assay: Test B pre-/postemergence herbicide test; assay type: in vivo, Ipomoea coccinea
How it was run: as §3

wild oat = assay: Test B postemergence herbicide test; assay type: in vivo, Avena fatua; details: scale 0 (no effect) to 100 (complete control)
How it was run: as §4

velvetleaf = assay: Test B pre-/postemergence herbicide test; assay type: in vivo, Abutilon theophrasti
How it was run: as §2

pigweed = assay: Test B pre-/postemergence herbicide test; assay type: in vivo, Amaranthus retroflexus
How it was run: as §2

wheat = assay: Test B postemergence herbicide test; assay type: in vivo, Triticum aestivum; parameters: key to Wheat plant response rating: 0 = no effect, 100 = complete control; details: scale 0 (no effect) to 100 (complete control)
How it was run: as §4

Surinam grass = assay: Test B pre-/postemergence herbicide test; assay type: in vivo, Urochloa decumbens
How it was run: as §2

barnyardgrass [2] = assay: Test B flooded paddy test; assay type: in vivo, Echinochloa crus-galli; details: 1000 g ai/ha, visual rating, scale 0 to 100 (0 no effect, 100 complete control), 13 to 15 days
How it was run: as §1

[3] = 500 g ai/ha, visual rating 0-100, 0 no effect, 100 complete control, preemergence
[4] = Postemergence, 500 g ai/ha, visual rating after 13 to 15 days, scale 0 (no effect) to 100 (complete control)
[5] = postemergence, 125 g ai/ha, visual rating, scale 0 (no effect) to 100 (complete control)
[6] = preemergence, 125 g ai/ha, 0 to 100 scale, 0 is no effect, 100 is complete control
[7] = Postemergence, 500 g ai/ha, visual rating after 13 to 15 days
[8] = postemergence, 125 g ai/ha, visual rating

CCOC(=O)c1cc(NC(=O)c2cc(C(C)(C)C)nn2CC)ccc1OCC [Compound 95]
0: Plant response rating, Cocklebur (cocklebur; [3]) | Plant response rating, Cocklebur (cocklebur; [6]) | Crabgrass, Large plant response rating (large crabgrass; [5]) | Barnyardgrass plant response rating (barnyardgrass [1]; [5]) | Morningglory plant response rating (morningglory; [5]) | Plant response rating, Velvetleaf (velvetleaf; [6])
60: Plant response rating, Corn (corn; [3]) | Plant response rating, Corn (corn; [6]) | Cocklebur plant response rating (cocklebur; [5]) | Rice plant response rating (rice) | Plant response rating, Crabgrass, Large (large crabgrass; [6]) | Plant response rating, Morningglory (morningglory; [4]) | Plant response rating, Velvetleaf (velvetleaf; [3]) | Plant response rating, Velvetleaf (velvetleaf; [4])
50: Plant response rating, Foxtail, Giant (giant foxtail; [6]) | Plant response rating, Crabgrass, Large (large crabgrass; [4]) | Plant response rating, Barnyardgrass (barnyardgrass [1]; [6]) | Velvetleaf plant response rating (velvetleaf; [5]) | Barnyardgrass plant response rating (barnyardgrass [2])
10: Plant response rating, Corn (corn; [4]) | Corn plant response rating (corn; [5]) | Foxtail, Giant plant response rating (giant foxtail; [5]) | Plant response rating, Morningglory (morningglory; [6]) | Oat, Wild plant response rating (wild oat; [8]) | Plant response rating, Wheat (wheat; [7]) | Wheat plant response rating (wheat; [8])
80: Ducksalad plant response rating (ducksalad) | Plant response rating, Barnyardgrass (barnyardgrass [1]; [3])
70: Plant response rating, Cocklebur (cocklebur; [4]) | Plant response rating, Surinam Grass (Surinam grass; [3])
20: Plant response rating, Barnyardgrass (barnyardgrass [1]; [4]) | Plant response rating, Oat, Wild (wild oat; [7]) | Plant response rating, Surinam Grass (Surinam grass; [4]) | Surinam Grass plant response rating (Surinam grass; [5]) | Plant response rating, Surinam Grass (Surinam grass; [6])
30: Plant response rating, Foxtail, Giant (giant foxtail; [4])
90: Plant response rating, Crabgrass, Large (large crabgrass; [3]) | Pigweed plant response rating (pigweed; [5])
100: Plant response rating, Foxtail, Giant (giant foxtail; [3]) | Plant response rating, Lambsquarters (lambsquarters; [3]) | Plant response rating, Lambsquarters (lambsquarters; [4]) | Lambsquarters plant response rating (lambsquarters; [5]) | Plant response rating, Lambsquarters (lambsquarters; [6]) | Plant response rating, Pigweed (pigweed; [3]) | Plant response rating, Pigweed (pigweed; [4]) | Plant response rating, Pigweed (pigweed; [6])
